What was measured:
Assay type in all cases: in vivo
[1] = tested on: wheat (Triticum aestivum); assay: Test C postemergence; details: for Wheat plant response rating: scale 0 to 100 (0 no effect, 100 complete control); for Plant response rating, Wheat: scale 0 to 100
Summary of the method: (§1)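 Injury scored visually 12–14 days after application on 0–100 scale (100 = complete control), relative to controls. Compounds, formulated with surfactant in non-phytotoxic solvent, applied to soil at planting (pre) or to 1- to 4-leaf plants 2–18 cm tall (post) in greenhouse.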

[2] = tested on: Italian ryegrass (Lolium multiflorum); assay: Test C postemergence; details: for Ryegrass, Italian plant response rating: scale 0 to 100 (0 no effect, 100 complete control); for Plant response rating, Ryegrass, Italian: scale 0 to 100
Summary of the method: as §1

[3] = tested on: downy brome (Bromus tectorum); assay: Test C postemergence; details: for Bromegrass, Downy plant response rating: scale 0 to 100 (0 no effect, 100 complete control); for Plant response rating, Bromegrass, Downy: scale 0 to 100
Summary of the method: as §1

[4] = tested on: green foxtail (Setaria viridis); assay: Test C postemergence; details: for Foxtail, Green plant response rating: scale 0 to 100 (0 no effect, 100 complete control); for Plant response rating, Foxtail, Green: scale 0 to 100
Summary of the method: as §1

[5] = tested on: windgrass (Apera spica-venti); assay: Test C postemergence; details: for Windgrass plant response rating: scale 0 to 100 (0 no effect, 100 complete control); for Plant response rating, Windgrass: scale 0 to 100
Summary of the method: as §1

[6] = tested on: winter barley (Hordeum vulgare); assay: Test C postemergence; details: for Barley plant response rating: scale 0 to 100 (0 no effect, 100 complete control); for Plant response rating, Barley: scale 0 to 100
Summary of the method: as §1

[7] = tested on: blackgrass (Alopecurus myosuroides); assay: Test C postemergence; details: for Blackgrass plant response rating: scale 0 to 100 (0 no effect, 100 complete control); for Plant response rating, Blackgrass: scale 0 to 100
Summary of the method: as §1

wild oat (Avena fatua) = assay: Test C postemergence; details: for Oat, Wild plant response rating: scale 0 to 100 (0 no effect, 100 complete control); for Plant response rating, Oat, Wild: scale 0 to 100
Summary of the method: as §1

[8] = tested on: canarygrass (Phalaris minor); assay: Test C postemergence; details: for Canarygrass plant response rating: scale 0 to 100 (0 no effect, 100 complete control); for Plant response rating, Canarygrass: scale 0 to 100
Summary of the method: as §1

[9] = tested on: yellow nutsedge (Cyperus esculentus); assay: Test C pre/postemergence; details: for Nutsedge, Yellow plant response rating: scale 0 to 100 (0 no effect, 100 complete control)
Summary of the method: as §1

[10] = tested on: crabgrass (Digitaria sanguinalis); assay: Test C pre/postemergence; details: for Crabgrass plant response rating: scale 0 to 100 (0 no effect, 100 complete control)
Summary of the method: as §1

soybean (Glycine max) = assay: Test C pre/postemergence; details: for Soybean plant response rating: scale 0 to 100 (0 no effect, 100 complete control)
Summary of the method: as §1

[11] = Postemergence, 250 g ai/ha, scale 0 to 100
[12] = Postemergence, 500 g ai/ha, scale 0 to 100
[13] = Preemergence, 62 g ai/ha, scale 0 to 100, 0 no effect, 100 complete control
[14] = Preemergence, 125 g ai/ha, scale 0 to 100
[15] = Preemergence, 250 g ai/ha, scale 0 to 100
[16] = Preemergence, 500 g ai/ha, scale 0 to 100

Nc1nc(-c2ccc(Br)cc2)nc(C(=O)O)c1Br [Compound 136]
Plant response rating (scale of 0 to 100), Wheat ([1]; 16 g ai/ha): 20
Plant response rating (scale of 0 to 100), Wheat ([1]; 31 g ai/ha): 40
Plant response rating (scale of 0 to 100), Wheat ([1]; 62 g ai/ha): 45
Wheat plant response rating ([1]; 125 g ai/ha): 55
Plant response rating (scale of 0 to 100), Ryegrass, Italian ([2]; 16 g ai/ha): 45
Plant response rating (scale of 0 to 100), Ryegrass, Italian ([2]; 31 g ai/ha): 50
Plant response rating (scale of 0 to 100), Ryegrass, Italian ([2]; 62 g ai/ha): 60
Ryegrass, Italian plant response rating ([2]; 125 g ai/ha): 65
Plant response rating (scale of 0 to 100), Bromegrass, Downy ([3]; 16 g ai/ha): 30
Plant response rating (scale of 0 to 100), Bromegrass, Downy ([3]; 62 g ai/ha): 45
Bromegrass, Downy plant response rating ([3]; 125 g ai/ha): 55
Plant response rating (scale of 0 to 100), Foxtail, Green ([4]; 16 g ai/ha): 45
Plant response rating (scale of 0 to 100), Foxtail, Green ([4]; 31 g ai/ha): 65
Plant response rating (scale of 0 to 100), Foxtail, Green ([4]; 62 g ai/ha): 70
Foxtail, Green plant response rating ([4]; 125 g ai/ha): 70
Plant response rating (scale of 0 to 100), Windgrass ([5]; 16 g ai/ha): 45
Plant response rating (scale of 0 to 100), Windgrass ([5]; 31 g ai/ha): 60
Plant response rating (scale of 0 to 100), Windgrass ([5]; 62 g ai/ha): 65
Windgrass plant response rating ([5]; 125 g ai/ha): 65
Plant response rating (scale of 0 to 100), Barley ([6]; 16 g ai/ha): 40
Plant response rating (scale of 0 to 100), Barley ([6]; 31 g ai/ha): 50
Barley plant response rating ([6]; 62 g ai/ha): 50
Barley plant response rating ([6]; 125 g ai/ha): 55
Plant response rating (scale of 0 to 100), Blackgrass ([7]; 16 g ai/ha): 40
Plant response rating (scale of 0 to 100), Blackgrass ([7]; 31 g ai/ha): 55
Plant response rating (scale of 0 to 100), Blackgrass ([7]; 62 g ai/ha): 65
Blackgrass plant response rating ([7]; 125 g ai/ha): 65
Plant response rating (scale of 0 to 100), Oat, Wild (wild oat (Avena fatua); 16 g ai/ha): 40
Plant response rating (scale of 0 to 100), Oat, Wild (wild oat (Avena fatua); 31 g ai/ha): 45
Plant response rating (scale of 0 to 100), Oat, Wild (wild oat (Avena fatua); 62 g ai/ha): 55
Oat, Wild plant response rating (wild oat (Avena fatua); 125 g ai/ha): 60
Plant response rating (scale of 0 to 100), Canarygrass ([8]; 16 g ai/ha): 40
Plant response rating (scale of 0 to 100), Canarygrass ([8]; 31 g ai/ha): 45
Plant response rating (scale of 0 to 100), Canarygrass ([8]; 62 g ai/ha): 55
Canarygrass plant response rating ([8]; 125 g ai/ha): 65
Plant response rating (scale of 0 to 100), Nutsedge, Yellow ([9]; Postemergence, 16 g ai/ha): 60
Plant response rating (scale of 0 to 100), Nutsedge, Yellow ([9]; Postemergence, 31 g ai/ha): 65
Plant response rating (scale of 0 to 100), Nutsedge, Yellow ([9]; Postemergence, 62 g ai/ha): 75
Nutsedge, Yellow plant response rating ([9]; Postemergence, 125 g ai/ha): 75
Plant response rating (scale of 0 to 100), Crabgrass ([10]; Postemergence, 16 g ai/ha): 60
Plant response rating (scale of 0 to 100), Crabgrass ([10]; Postemergence, 31 g ai/ha): 75
Plant response rating (scale of 0 to 100), Crabgrass ([10]; Postemergence, 62 g ai/ha): 75
Crabgrass plant response rating ([10]; Postemergence, 125 g ai/ha): 75
Plant response rating (scale of 0 to 100), Soybean (soybean (Glycine max); Postemergence, 16 g ai/ha): 95
Plant response rating (scale of 0 to 100), Soybean (soybean (Glycine max); Postemergence, 31 g ai/ha): 100
Plant response rating (scale of 0 to 100), Soybean (soybean (Glycine max); Postemergence, 62 g ai/ha): 100
Soybean plant response rating (soybean (Glycine max); Postemergence, 125 g ai/ha): 100

CNN=Cc1nc(C2CC2)nc(N)c1Br [Compound 49]
Wheat plant response rating ([1]; 62 g ai/ha): 20
Wheat plant response rating ([1]; 125 g ai/ha): 40
Plant response rating, Wheat ([1]; 250 g ai/ha): 50
Plant response rating, Wheat ([1]; 500 g ai/ha): 60
Ryegrass, Italian plant response rating ([2]; 62 g ai/ha): 30
Ryegrass, Italian plant response rating ([2]; 125 g ai/ha): 30
Plant response rating, Ryegrass, Italian ([2]; 250 g ai/ha): 50
Plant response rating, Ryegrass, Italian ([2]; 500 g ai/ha): 50
Bromegrass, Downy plant response rating ([3]; 62 g ai/ha): 0
Bromegrass, Downy plant response rating ([3]; 125 g ai/ha): 0
Plant response rating, Bromegrass, Downy ([3]; 250 g ai/ha): 0
Plant response rating, Bromegrass, Downy ([3]; 500 g ai/ha): 30
Foxtail, Green plant response rating ([4]; 62 g ai/ha): 0
Foxtail, Green plant response rating ([4]; 125 g ai/ha): 20
Plant response rating, Foxtail, Green ([4]; 250 g ai/ha): 50
Plant response rating, Foxtail, Green ([4]; 500 g ai/ha): 60
Windgrass plant response rating ([5]; 62 g ai/ha): 40
Windgrass plant response rating ([5]; 125 g ai/ha): 40
Plant response rating, Windgrass ([5]; 250 g ai/ha): 60
Plant response rating, Windgrass ([5]; 500 g ai/ha): 60
Barley plant response rating ([6]; 62 g ai/ha): 0
Barley plant response rating ([6]; 125 g ai/ha): 20
Plant response rating, Barley ([6]; 250 g ai/ha): 30
Plant response rating, Barley ([6]; 500 g ai/ha): 40
Blackgrass plant response rating ([7]; 62 g ai/ha): 40
Blackgrass plant response rating ([7]; 125 g ai/ha): 40
Plant response rating, Blackgrass ([7]; 250 g ai/ha): 50
Plant response rating, Blackgrass ([7]; 500 g ai/ha): 60
Oat, Wild plant response rating (wild oat (Avena fatua); 62 g ai/ha): 30
Oat, Wild plant response rating (wild oat (Avena fatua); 125 g ai/ha): 40
Plant response rating, Oat, Wild (wild oat (Avena fatua); 250 g ai/ha): 40
Plant response rating, Oat, Wild (wild oat (Avena fatua); 500 g ai/ha): 60
Canarygrass plant response rating ([8]; 62 g ai/ha): 0
Canarygrass plant response rating ([8]; 125 g ai/ha): 20
Plant response rating, Canarygrass ([8]; 250 g ai/ha): 30
Plant response rating, Canarygrass ([8]; 500 g ai/ha): 40
Nutsedge, Yellow plant response rating ([9]; Postemergence, 62 g ai/ha): 0
Nutsedge, Yellow plant response rating ([9]; Postemergence, 125 g ai/ha): 0
Plant response rating, Nutsedge, Yellow [9, 11]: 0
Plant response rating, Nutsedge, Yellow [9, 12]: 0
Plant response rating, Nutsedge, Yellow [9, 13]: 0
Plant response rating, Nutsedge, Yellow [9, 14]: 0
Plant response rating, Nutsedge, Yellow [9, 15]: 0
Plant response rating, Nutsedge, Yellow [9, 16]: 0
Crabgrass plant response rating ([10]; Postemergence, 62 g ai/ha): 0
Crabgrass plant response rating ([10]; Postemergence, 125 g ai/ha): 65
Plant response rating, Crabgrass [10, 11]: 75
Plant response rating, Crabgrass [10, 12]: 95
Plant response rating, Crabgrass [10, 13]: 95
Plant response rating, Crabgrass [10, 14]: 95
Plant response rating, Crabgrass [10, 15]: 95
Plant response rating, Crabgrass [10, 16]: 100
Soybean plant response rating (soybean (Glycine max); Postemergence, 62 g ai/ha): 95
Soybean plant response rating (soybean (Glycine max); Postemergence, 125 g ai/ha): 95
Plant response rating, Soybean (soybean (Glycine max); [11]): 95
Plant response rating, Soybean (soybean (Glycine max); [12]): 100
Plant response rating, Soybean (soybean (Glycine max); [13]): 0
Plant response rating, Soybean (soybean (Glycine max); [14]): 70
Plant response rating, Soybean (soybean (Glycine max); [15]): 90
Plant response rating, Soybean (soybean (Glycine max); [16]): 90
